Experiment [1] concerns H-2 Kb cells. As to the kind of experiment: Glucose uptake in H-2 Kb cells (in vitro cellular test). The conditions noted are these: H-2 Kb cells differentiated in muscle, 4 hours incubation, 2-deoxy-D-[1,2 3H] glucose uptake 10 min. Format: cell-based, mouse. On the procedure: Glucose Uptake in H-2 Kb Cells (In Vitro Cellular Test)
The following cellular test allows the determination of the effect of AMPK activators such as compounds of formula (I) onto glucose uptake in a muscle cellular model.
H-1-2 Kb cells derived from heterozygous H-2 Kb tsA58 transgenic mouse were grown in 24-well in plates coated with matrigel and were cultured at 33° C. for 4 days under permissive conditions, as described previously by Fryer et al. (Diabetes 49 (12): 1978, 2000).
For differentiation in muscle, cells were switched to non-permissive culture conditions (37° C. in the absence of interferon-γ). After 3 days, cells were incubated for 4 hours in DMEM 1 g/l glucose culture medium containing different concentrations of the tested molecules. Then glucose uptake was measured by incubating the cells for 10 min with radiolabelled 2-deoxy-D-[1,2 ^3H] glucose. Glucose uptake was terminated by rapidly washing the plates 2 times with ice-cold NaCl 0.9%. The cells were then solubilized in 0.1N NaOH for 30 min. Radioactivity was determined by liquid scintillation counting.
N°: Number of the molecule
Activity (table III): Concentration of compound (I) for a glucose uptake equal or higher to glucose uptake induced by insulin (170 nM)
^++ or **concentration of compound (I) ≦10 micro Molar
^+ or *concentration of compound (I) >10 micro Molar

Experiment [2] deals with T1, AMPK protein (recombinant α1β1γ2) (Homo sapiens, UniProt Q13131+Q9Y478).
T1 construct: made in house; host or cells: E. coli
As to the kind of experiment: AMPK enzymatic activity (Delfia, AMARA peptide substrate). In kind it is biochemical. Conditions: compound 30 μM vs AMP 30 μM; 125 μM ATP; ratio 90% or higher = direct activator. In short, it runs like this:
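Human α1β1γ2 AMPK expressed in E. coli, reactivated in vitro by LKB1, assayed in 50 mM Hepes pH 7.4 with 125 μM ATP and AMARA peptide for 30 min at room temperature; phosphorylation detected by Delfia anti-phosphoserine antibody. Activity = % of basal control at 30 μM compound relative to that of 30 μM AMP.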

T1 sequence (Q13131 whole entry): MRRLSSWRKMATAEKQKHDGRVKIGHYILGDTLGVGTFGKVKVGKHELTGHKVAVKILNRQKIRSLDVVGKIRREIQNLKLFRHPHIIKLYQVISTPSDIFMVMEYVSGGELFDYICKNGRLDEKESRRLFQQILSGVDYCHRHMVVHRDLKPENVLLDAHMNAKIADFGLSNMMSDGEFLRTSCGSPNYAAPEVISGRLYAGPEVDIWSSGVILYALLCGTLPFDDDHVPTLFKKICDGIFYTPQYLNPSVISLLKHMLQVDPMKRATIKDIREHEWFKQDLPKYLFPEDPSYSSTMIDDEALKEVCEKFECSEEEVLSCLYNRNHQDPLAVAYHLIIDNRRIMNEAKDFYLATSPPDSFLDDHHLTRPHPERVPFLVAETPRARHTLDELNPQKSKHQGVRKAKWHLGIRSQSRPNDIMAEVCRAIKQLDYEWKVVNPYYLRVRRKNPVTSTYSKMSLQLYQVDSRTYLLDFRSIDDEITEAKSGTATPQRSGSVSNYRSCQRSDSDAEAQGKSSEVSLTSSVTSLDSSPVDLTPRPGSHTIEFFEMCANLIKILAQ
T1 sequence (Q9Y478 whole entry): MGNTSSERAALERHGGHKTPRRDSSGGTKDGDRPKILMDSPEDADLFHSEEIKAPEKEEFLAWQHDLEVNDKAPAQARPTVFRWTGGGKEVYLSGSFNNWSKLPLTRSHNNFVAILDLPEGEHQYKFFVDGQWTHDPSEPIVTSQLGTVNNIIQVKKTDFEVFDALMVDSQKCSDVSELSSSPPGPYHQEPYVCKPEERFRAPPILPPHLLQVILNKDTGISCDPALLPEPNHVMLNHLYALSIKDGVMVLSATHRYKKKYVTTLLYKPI
T1 sequence (Q9UGJ0 whole entry partner): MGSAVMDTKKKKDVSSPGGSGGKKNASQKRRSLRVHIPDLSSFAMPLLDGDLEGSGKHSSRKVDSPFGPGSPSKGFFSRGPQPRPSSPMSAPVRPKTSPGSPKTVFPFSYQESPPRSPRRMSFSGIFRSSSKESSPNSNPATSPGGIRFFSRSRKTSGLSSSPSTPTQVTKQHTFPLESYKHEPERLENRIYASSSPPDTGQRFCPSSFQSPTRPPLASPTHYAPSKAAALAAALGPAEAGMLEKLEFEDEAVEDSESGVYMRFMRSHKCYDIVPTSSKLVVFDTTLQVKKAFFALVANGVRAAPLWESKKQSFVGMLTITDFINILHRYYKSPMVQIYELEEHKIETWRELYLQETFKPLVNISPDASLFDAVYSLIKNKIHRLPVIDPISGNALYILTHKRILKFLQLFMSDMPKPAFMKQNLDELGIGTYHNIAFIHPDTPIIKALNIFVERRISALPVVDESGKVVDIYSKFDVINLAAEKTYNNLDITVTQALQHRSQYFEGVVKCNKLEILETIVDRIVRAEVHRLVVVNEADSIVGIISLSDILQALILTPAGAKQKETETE

For the molecule `COc1cccc(-c2c(O)c3c(-c4ccccc4)c(Cl)sc3[nH]c2=O)c1` [Compound 149], the “Activity (table III): Concentration of compound (I) for a glucose uptake equal or higher to glucose uptake induced by insulin (170 nM)” value (from here on “Activity (table III): Concentration”) in experiment [1] is “** (^++ or **concentration of compound (I) ≦10 micro Molar)”. The “activity: Ratio between the % of control (basal activity) of compound of formula (I) at 30 μM and the % of control (basal activity) of AMP at 30 μM” value (from here on “activity: Ratio between the % of control”) in experiment [2] amounted to 120%.
The matching figures for `O=c1[nH]c2sc(Cl)c(-c3ccccc3)c2c(O)c1-c1ccc(O)cc1` [Compound 156]: “** (^++ or **concentration of compound (I) ≦10 micro Molar)” and 95%.
For `COc1ccc(-c2c(O)c3c(-c4ccccc4)c(Cl)sc3[nH]c2=O)cc1` [Compound 157] the same measures were “** (^++ or **concentration of compound (I) ≦10 micro Molar)” and 147%.
For `O=c1[nH]c2sc(Br)c(-c3ccccc3)c2c(O)c1-c1ccccc1` [Compound 161] the same measures were “** (^++ or **concentration of compound (I) ≦10 micro Molar)” and 113%.
As for `O=c1[nH]c2sc(Cl)c(-c3ccccc3)c2c(O)c1-c1ccccc1` [Compound 162], the “Activity (table III): Concentration” value in experiment [1] is given as “** (^++ or **concentration of compound (I) ≦10 micro Molar)”. Also, the “activity: Ratio between the % of control” value in experiment [2] is listed as 107%.
The matching figures for `Cc1ccccc1-c1c(O)c2c(-c3ccccc3)c(Cl)sc2[nH]c1=O` [Compound 164]: “+ (^+ or *concentration of compound (I) >10 micro Molar)” and 354%.
The matching figures for `O=c1[nH]c2sc(Cl)c(-c3ccccc3)c2c(O)c1-c1ccccc1F` [Compound 165]: “+ (^+ or *concentration of compound (I) >10 micro Molar)” and 238%.
For `O=c1[nH]c2sc(Cl)c(-c3ccccc3)c2c(O)c1-c1cccnc1` [Compound 166] the same measures were “+ (^+ or *concentration of compound (I) >10 micro Molar)” and 225%.
As for `COc1ccc(-c2c(O)c3c(-c4ccccc4)c(Cl)sc3[nH]c2=O)cn1` [Compound 167], the “Activity (table III): Concentration” value in experiment [1] is recorded as “++ (^++ or **concentration of compound (I) ≦10 micro Molar)”. Also, in experiment [2], the “activity: Ratio between the % of control” value is 592%.
The matching figures for `O=c1[nH]c2sc(Cl)c(-c3ccccc3)c2c(O)c1-c1cccs1` [Compound 168]: “++ (^++ or **concentration of compound (I) ≦10 micro Molar)” and 174%.
Take `O=c1[nH]c2sc(Cl)c(-c3ccccc3)c2c(O)c1-c1ccsc1` [Compound 169]: in experiment [1], the “Activity (table III): Concentration” value is “++ (^++ or **concentration of compound (I) ≦10 micro Molar)”. The “activity: Ratio between the % of control” value in experiment [2] was determined as 196%.
The matching figures for `O=c1[nH]c2sc(Cl)c(-c3ccccc3)c2c(O)c1-c1ccc(C(F)(F)F)cc1` [Compound 171]: “+ (^+ or *concentration of compound (I) >10 micro Molar)” and 147%.
With `O=c1[nH]c2sc(Cl)c(-c3ccccc3)c2c(O)c1-c1ccc(F)cc1` [Compound 172], the “Activity (table III): Concentration” value in experiment [1] is recorded as “+ (^+ or *concentration of compound (I) >10 micro Molar)”. In addition, the “activity: Ratio between the % of control” value in experiment [2] came to 153%.
The matching figures for `O=c1[nH]c2sc(Cl)c(-c3ccccc3)c2c(O)c1-c1ccc(Cl)cc1` [Compound 173]: “++ (^++ or **concentration of compound (I) ≦10 micro Molar)” and 160%.
For `Cc1ccc(-c2c(O)c3c(-c4ccccc4)c(Cl)sc3[nH]c2=O)cc1` [Compound 174] the same measures were “+ (^+ or *concentration of compound (I) >10 micro Molar)” and 245%.
As for `O=c1[nH]c2sc(Cl)c(-c3ccccc3)c2c(O)c1-c1cccc(F)c1` [Compound 175], the “Activity (table III): Concentration” value in experiment [1] is recorded as “+ (^+ or *concentration of compound (I) >10 micro Molar)”. Besides, the “activity: Ratio between the % of control” value in experiment [2] is given as 252%.
As to `Cc1cccc(-c2c(O)c3c(-c4ccccc4)c(Cl)sc3[nH]c2=O)c1` [Compound 176], the “Activity (table III): Concentration” value in experiment [1] is reported as “++ (^++ or **concentration of compound (I) ≦10 micro Molar)”. Also, the “activity: Ratio between the % of control” value in experiment [2] stood at 245%.
For `COc1ccc(-c2c(O)c3c(-c4ccccc4)c(Cl)sc3[nH]c2=O)cc1OC` [Compound 177], in experiment [1], the “Activity (table III): Concentration” value is “++ (^++ or **concentration of compound (I) ≦10 micro Molar)”. In addition, in experiment [2], the “activity: Ratio between the % of control” value worked out at 234%.
Regarding `O=c1[nH]c2sc(Cl)c(-c3ccc(Cl)cc3)c2c(O)c1-c1ccccc1` [Compound 178], the “Activity (table III): Concentration” value in experiment [1] is “++ (^++ or **concentration of compound (I) ≦10 micro Molar)”. Moreover, in experiment [2], the “activity: Ratio between the % of control” value was 138%.
The matching figures for `CCc1ccc(-c2c(Cl)sc3[nH]c(=O)c(-c4ccccc4)c(O)c23)cc1` [Compound 181]: “++ (^++ or **concentration of compound (I) ≦10 micro Molar)” and 559%.
Regarding `CC(C)c1ccc(-c2c(Cl)sc3[nH]c(=O)c(-c4ccccc4)c(O)c23)cc1` [Compound 182], the “Activity (table III): Concentration” value in experiment [1] is on record as “+ (^+ or *concentration of compound (I) >10 micro Molar)”. Besides, in experiment [2], the “activity: Ratio between the % of control” value is 165%.
The matching figures for `CCCc1ccc(-c2c(Cl)sc3[nH]c(=O)c(-c4ccccc4)c(O)c23)cc1` [Compound 183]: “+ (^+ or *concentration of compound (I) >10 micro Molar)” and 146%.
The matching figures for `O=c1[nH]c2sc(Cl)c(-c3ccc4c(Cl)cccc4c3O)c2c(O)c1-c1ccccc1` [Compound 184]: “++ (^++ or **concentration of compound (I) ≦10 micro Molar)” and 167%.
For `O=c1[nH]c2sc(Cl)c(-c3ccc4ccccc4c3O)c2c(O)c1-c1ccc(F)cc1` [Compound 185] the same measures were “++ (^++ or **concentration of compound (I) ≦10 micro Molar)” and 284%.
`Cc1ccc(-c2c(O)c3c(-c4ccc5ccccc5c4O)c(Cl)sc3[nH]c2=O)cc1` [Compound 186]: the “Activity (table III): Concentration” value in experiment [1] was “++ (^++ or **concentration of compound (I) ≦10 micro Molar)”. In addition, the “activity: Ratio between the % of control” value in experiment [2] is recorded as 192%.
The matching figures for `COc1cc(F)ccc1-c1c(Cl)sc2[nH]c(=O)c(-c3ccccc3)c(O)c12` [Compound 187]: “+ (^+ or *concentration of compound (I) >10 micro Molar)” and 124%.

Values taken from patent US8563729B2, “Thienopyridone derivatives as AMP-activated protein kinase (AMPK) activators” (Merck Patent GmbH, priority 2008, dated 2013).
